From US4146719A, “Piperazinyl derivatives of quinoline carboxylic acids” (priority 1977, dated 1979)
Converted amounts (≈) assume the structure as drawn. Read-outs that look alike come from different tables or passages of the source.

What was measured:
[1] = test system: Diplococcus pneumoniae IID 552; assay: Antibacterial activity in vitro, M.I.C., agar dilution streak method; format: cell-based; settings: Streptococcus pneumoniae, IID552
[2] = test system: Staphylococcus aureus 209P; assay: as above; format: cell-based; settings: Staphylococcus aureus, 209P
[3] = test system: Streptococcus pyogenes IID 692; assay: as above; format: cell-based; settings: Streptococcus pyogenes, IID692
Ps. aeruginosa IFO 12689 = assay: as above; format: cell-based, Pseudomonas aeruginosa; settings: Pseudomonas aeruginosa, IFO12689
Ps. aeruginosa IID 1130 = assay: as above; format: cell-based, Pseudomonas aeruginosa; settings: Pseudomonas aeruginosa, IID1130
Shigella sonnei IID 969 = assay: as above; format: cell-based; settings: Shigella sonnei, IID969; Gram -
[4] = test system: Bacillus subtilis PCI 219; assay: as above; format: cell-based; settings: Bacillus subtilis, PCI219
[5] = test system: Klebsiella pneumoniae IFO 3512; assay: as above; format: cell-based; settings: Klebsiella pneumoniae, IFO3512
My. smegmatis IFO 3083 = assay: as above; format: cell-based; settings: Mycolicibacterium smegmatis, IFO3083
[6] = test system: Mycobacterium phlei IFO 3142; assay: as above; format: cell-based; settings: Mycolicibacterium phlei, IFO3142
[7] = test system: Pseudomonas aeruginosa IID 1210; assay: Preventive effect against systemic infection with Pseudomonas aeruginosa in mice; format: in vivo, Pseudomonas aeruginosa; mice (ddY, male); settings: Pseudomonas aeruginosa, subcutaneous, challenge 3.5 × 10^4 cells/mouse
Method: Systemic infection was produced by inoculating male mice (strain: ddY, 6 weeks old, body weight: 28-33g) in intraperitoneally with Pseudomonas aeruginosa IID 1210 suspended in 0.5 ml of Brain heart infusion broth (Eiken) containing 5% mucin. […] Each of these test materials was administered to the mice twice, immediately after and then 6 hours after the inoculation, and the therapeutic effect of each compounds was judged from the survival rate.
(1) Miller L. C. and M. L. Tainter: Estimation of the ED50 and its error by means of logarithmic-probit graph paper Proc. Soc. Exp. Biol. Med. 57 261-264 (1944)
(2) Litchfield J. T. and F. Wilcoxon: A simplified method of evaluating dose - effect J. Pharmacol. 92 99-113 (1948)

Pr. vulgaris XK Denken = assay: Antibacterial activity in vitro, M.I.C., agar dilution streak method; format: cell-based, Proteus vulgaris; settings: Proteus vulgaris
[8] = test system: Proteus vulgaris IFO 3167; assay: as above; format: cell-based; settings: Proteus vulgaris, IFO3167
[9] = test system: Corynebacterium pyogenes IID 548; assay: as above; format: cell-based; settings: Corynebacterium pyogenes, IID548; Gram +
Str. pyogenes S-8 = assay: as above; format: cell-based, Streptococcus pyogenes; settings: Streptococcus pyogenes, S8
Ps. aeruginosa IID 1210 = assay: as above; format: cell-based, Pseudomonas aeruginosa; settings: Pseudomonas aeruginosa, IID1210
[10] = test system: Salmonella enteritidis IID 604; assay: as above; format: cell-based; settings: Salmonella enterica
[11] = test system: Pseudomonas aeruginosa V-1; assay: as above; format: cell-based; settings: Pseudomonas aeruginosa, V1
[12] = test system: Haemophilus influenzae IID 986; assay: as above; format: cell-based; settings: Haemophilus influenzae, IID986
Escherichia coli NIHJ = assay: as above; format: cell-based; settings: Escherichia coli
[13] = test system: Neisseria perflava IID 856; assay: as above; format: cell-based; settings: Neisseria perflava, IID856
Sta. aureus ATCC 14775 = assay: as above; format: cell-based, Staphylococcus aureus; settings: Staphylococcus aureus, ATCC14775
E. coli ATCC 10536 = assay: as above; format: cell-based, Escherichia coli; settings: Escherichia coli, ATCC10536
Str. faecalis IID 682 = assay: as above; format: cell-based; settings: Enterococcus faecalis, IID682; Gram +
Escherichia coli = assay: Concentration ratio in serum to M.I.C. after oral administration of 50 mg/kg in rats; format: in vivo, Escherichia coli; rats; settings: rat, 50 mg/kg oral
[14] = test system: gram-positive and gram-negative bacteria including Pseudomonas aeruginosa; assay: Antibacterial spectrum in vitro (summary in words); format: cell-based
[15] = test system: Escherichia coli NIHJ JC-2; assay: Preventive effect against ascending kidney infection in mice with Escherichia coli; format: in vivo, Escherichia coli; mice (ddY, female); settings: Escherichia coli
Method: Ascending kidney infection was induced in female mice (strain: ddY, 6 weeks old, body weight: 22-26g), by instilling Escherlichia coli NIHJ JC-2 suspended in 0.04 ml of Tryptosoya broth (Nissan) into the urinary tract of mice anesthetized with sodium pentobarbital and by holding for 6 hours the mice in plastic tubes (diameter 25 mm) and clamping the outlet of urinary tract.
Each of these test material was orally administered 3 hours after inoculation. Mice were sacrificed 48 hours after inoculation. Kidneys were removed aseptically and bisected, and the two halves were pressed and streaked on agar plate containing Desoxycholate medium (Nissan). The therapeutic effect of each compound was evaluated from the absence of growth on the agar surface after 20 hours of incubation at 37° C.

[16] = Biliary excretion in rats after a single oral administration of 50 mg/kg; settings: in vivo, rat, 50 mg/kg oral
[17] = test system: Escherichia coli NIHJ JC-2; assay: Influence of rat bile on antibacterial activity; format: cell-based; settings: bile of rats
Method: Nutrient agar was heated and melted. […] The diameter of the inhibition zone was measured.

[18] = Chelate formation with ferric ion; format: physicochemical; settings: one third molar equivalent of ferric chloride hexahydrate, water
From the text: It is known that most of drugs such as Quinoform and Ethambutol which form chelates with metal ions in vivo produce undesirable side effects.

[19] = Chem. Abstr., 62, 15600h (1965); cited from earlier work

SMILES: CC1(C)S[C@@H]2[C@H](NC(=O)C(C(=O)O)c3ccccc3)C(=O)N2[C@H]1C(=O)O (some centres unmarked) [Carbenicillin]
- MIC ([1]; Gram +, read-out: M.I.C.): 0.39 µg/mL (≈ 1.03 µM)
- MIC ([2]; Gram +, read-out: M.I.C.): 0.39 µg/mL (≈ 1.03 µM)
- MIC ([3]; Gram +, read-out: M.I.C.): 0.1 µg/mL (≈ 0.264 µM)
- MIC (Ps. aeruginosa IFO 12689; Gram -, read-out: M.I.C.): 100 µg/mL (≈ 264 µM)
- MIC (Ps. aeruginosa IID 1130; Gram -, read-out: M.I.C.): 200 µg/mL (≈ 529 µM)
- MIC (Shigella sonnei IID 969): 1.56 µg/mL (≈ 4.12 µM)
- MIC ([4]; Gram +, read-out: M.I.C.): 0.39 µg/mL (≈ 1.03 µM)
- MIC ([5]; Gram -, read-out: M.I.C.): > 200 µg/mL
- MIC (My. smegmatis IFO 3083; Gram +, read-out: M.I.C.): 6.25 µg/mL (≈ 16.5 µM)
- MIC ([6]; Gram +, read-out: M.I.C.): > 200 µg/mL
- ED50 ([7]; IID1210, sc, twice (immediately and 6 hours after inoculation), read-out: ED50 (95% confidence limit)): 800 mg/kg
- ED90 ([7]; IID1210, twice, read-out: ED90): 1430 mg/kg
- MIC (Pr. vulgaris XK Denken; Gram -, read-out: M.I.C.): 0.39 µg/mL (≈ 1.03 µM)
- MIC ([8]; Gram -, read-out: M.I.C.): 6.25 µg/mL (≈ 16.5 µM)
- MIC [9]: 0.2 µg/mL
- MIC (Str. pyogenes S-8; Gram +, read-out: M.I.C.): 0.1 µg/mL (≈ 0.264 µM)
- MIC (Ps. aeruginosa IID 1210; Gram -, read-out: M.I.C.): 100 µg/mL (≈ 264 µM)
- MIC ([10]; Gram -, read-out: M.I.C.): 12.5 µg/mL (≈ 33 µM)
- MIC ([11]; Gram -, read-out: M.I.C.): 12.5 µg/mL (≈ 33 µM)
- MIC ([12]; Gram -, read-out: M.I.C.): 0.39 µg/mL (≈ 1.03 µM)
- MIC (Escherichia coli NIHJ): 1.56 µg/mL (≈ 4.12 µM)
- MIC [13]: 1.56 µg/mL (≈ 4.12 µM)
- MIC (Sta. aureus ATCC 14775; Gram +, read-out: M.I.C.): 6.25 µg/mL (≈ 16.5 µM)
- MIC (E. coli ATCC 10536): 1.56 µg/mL (≈ 4.12 µM)
- MIC (Str. faecalis IID 682): 100 µg/mL

SMILES: CCn1cc(C(=O)O)c(=O)c2ccc(C)nc21 [Nalidixic acid]
- MIC [1]: > 100 µg/mL
- MIC [2]: 100 µg/mL (≈ 431 µM)
- serum concentration / M.I.C. ratio (in words) (Escherichia coli): smaller than that of the compound (II)
- antibacterial activity (in words) [14]: inactive on many strains of gram-positive bacteria and many Pseudomonas aeruginosa strains
- MIC [3]: > 100 µg/mL
- ED90 ([15]; NIHJJC2, 48 h): 345 mg/kg
- ED50 ([15]; NIHJJC2, po, 48 h, read-out: ED50 (95% confidence limit)): 86 mg/kg
- MIC (Ps. aeruginosa IFO 12689): > 200 µg/mL
- MIC (Ps. aeruginosa IID 1130): > 200 µg/mL
- MIC (Shigella sonnei IID 969): 1.56 µg/mL (≈ 6.72 µM)
- MIC [4]: 6.25 µg/mL (≈ 26.9 µM)
- MIC [5]: 1.56 µg/mL (≈ 6.72 µM)
- dose excreted at 3 h ([16]; 0-3 hours, mean ±S.E., read-out: Biliary excretion, cumulative recovery): 0.29 ± 0.03%
- concentration at 3 h ([16]; 0-3 hrs., mean±S.E., read-out: Biliary level): 14700 ± 1500 ng/mL
- dose excreted at 6 h ([16]; 0-6 hours, mean ±S.E., read-out: Biliary excretion, cumulative recovery): 0.56 ± 0.05%
- dose excreted at 24 h ([16]; 0-24 hours, mean ±S.E., read-out: Biliary excretion, cumulative recovery): 1.33 ± 0.1%
- dose excreted at 27 h ([16]; 0-27 hours, mean ±S.E., read-out: Biliary excretion, cumulative recovery): 1.33 ± 0.1%
- concentration at 6 h ([16]; 3-6 hrs., mean±S.E., read-out: Biliary level): 16600 ± 2400 ng/mL
- concentration at 24 h ([16]; 6-24 hrs., mean±S.E., read-out: Biliary level): 9300 ± 1600 ng/mL
- concentration at 27 h ([16]; 24-27 hrs., read-out: Biliary level (not detected symbol)): < 2000 ng/mL
- MIC (My. smegmatis IFO 3083): > 100 µg/mL
- MIC [6]: 100 µg/mL (≈ 431 µM)
- antibacterial activity in presence of bile (in words) [17]: not influenced by bile of rats
- shift of absorption maxima on treatment with ferric ion ([18]; from 256 and 326 nm, NaOH): shifted to shorter wave length at 248 and 311 nm
- chelate compound with ferric ion ([18]; molar equivalent of sodium hydroxide): 3:1 chelate compound of nalidixic acid and ferric ion was obtained
- MIC (Pr. vulgaris XK Denken): 3.13 µg/mL (≈ 13.5 µM)
- MIC [8]: 3.13 µg/mL (≈ 13.5 µM)
- MIC (Str. pyogenes S-8): > 100 µg/mL
- MIC (Ps. aeruginosa IID 1210): > 200 µg/mL
- MIC [10]: 12.5 µg/mL (≈ 53.8 µM)
- MIC [11]: 100 µg/mL (≈ 431 µM)
- chelate compound with ferric ion [19]: afforded chelate compound when treated with ferric ion
- MIC [12]: 1.56 µg/mL (≈ 6.72 µM)
- MIC (Escherichia coli NIHJ): 3.13 µg/mL (≈ 13.5 µM)
- MIC [13]: 1.56 µg/mL (≈ 6.72 µM)
- MIC (Sta. aureus ATCC 14775): > 100 µg/mL
- MIC (E. coli ATCC 10536): 3.13 µg/mL (≈ 13.5 µM)
